# Assay results reported in ChEMBL document CHEMBL2203036, “Discovery of 1-[2-(2,4-dimethylphenylsulfanyl)phenyl]piperazine (Lu AA21004): a novel multimodal compound for the treatment of major depressive disorder” (J Med Chem, 2011).
# Active and inactive are the calls of the source. No cut-off for these calls is given here.
# Tests used:
# [1] = target: T1, 5-hydroxytryptamine receptor 7 (Homo sapiens, UniProt P34969); experiment: Binding affinity to human 5HT7 receptor
# Liver microsomes [2] = experiment: Intrinsic clearance in rat liver microsomes at 1 uM after 60 mins by LC-MS/MS analysis; type: ADME, Microsome; conditions: 1 h
# [3] = target: 5-hydroxytryptamine receptor 1B (Homo sapiens, UniProt P28222); experiment: Binding affinity at human 5HT1B receptor
# Rattus norvegicus [4] = experiment: Antidepression activity in Harlan rat assessed as increase in extracellular 5HT level in ventral hippocampus region at 2.5 mg/kg, sc measured from 60 to 120 mins by microdialysis method
# [5] = target: T1, 5-hydroxytryptamine receptor 7; experiment: Antagonist activity at human 5HT7 receptor expressed in HEK-CNG cells assessed as effect on cAMP production by fluorescence based assay; type: functional, cell-based
# [6] = target: T2, 5-hydroxytryptamine receptor 3A (Homo sapiens) (UniProt P46098); experiment: Inhibition of human 5HT3A receptor at 1 uM
# T2 sequence (whole entry): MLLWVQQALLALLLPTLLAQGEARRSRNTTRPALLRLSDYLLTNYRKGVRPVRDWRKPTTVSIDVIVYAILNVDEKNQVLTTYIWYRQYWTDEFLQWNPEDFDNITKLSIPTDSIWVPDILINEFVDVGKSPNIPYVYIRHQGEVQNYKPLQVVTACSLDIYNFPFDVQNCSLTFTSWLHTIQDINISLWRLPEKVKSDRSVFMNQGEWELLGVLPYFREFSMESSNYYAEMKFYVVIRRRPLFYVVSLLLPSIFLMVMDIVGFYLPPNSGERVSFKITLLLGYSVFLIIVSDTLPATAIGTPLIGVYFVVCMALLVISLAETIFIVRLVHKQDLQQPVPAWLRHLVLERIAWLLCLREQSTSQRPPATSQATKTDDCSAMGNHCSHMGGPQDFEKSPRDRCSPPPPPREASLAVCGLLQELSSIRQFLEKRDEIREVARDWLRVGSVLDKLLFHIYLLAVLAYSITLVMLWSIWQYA
# Rattus norvegicus [7] = experiment: Antidepression activity in Harlan rat assessed as increase in extracellular 5HT level in ventral hippocampus region at 5 to 10 mg/kg, sc measured from 40 to 180 mins by microdialysis method
# Rattus norvegicus [8] = experiment: Antidepression activity in sc dosed Harlan rat assessed as increase in extracellular 5HT level in ventral hippocampus region measured up to 180 mins by microdialysis method
# [9] = target: Melanocortin receptor 4 (Homo sapiens) (UniProt P32245); experiment: Inhibition of human MC4 receptor at 1 uM
# Histamine H1 receptor = Histamine H1 receptor (Homo sapiens, UniProt P35367); experiment: Binding affinity to human histamine H1 receptor
# [10] = target: 5-hydroxytryptamine receptor 3A (Rattus norvegicus) (UniProt P35563); experiment: Agonist activity at rat 5HT3A receptor expressed in xenopus oocytes at 0.1 to 100000 nM by electrophysiological method; conditions: Oocyte
# [11] = target: 5-hydroxytryptamine receptor 1A (Rattus norvegicus) (UniProt P19327); experiment: Binding affinity to rat 5HT1A receptor
# Rattus norvegicus [12] = experiment: Target occupancy at SERT in Harlan rat at 10 mg/kg, sc administered QD for 3 days relative to vehicle-treated control; type: functional; conditions: route subcutaneous
# [13] = target: T3, 5-hydroxytryptamine receptor 3A (Homo sapiens, UniProt P46098); experiment: Antagonist activity at human 5HT3A receptor expressed in xenopus oocytes assessed as inhibition of 5HT-induced effect by electrophysiological method; type: functional, cell-based, Oocyte
# T3 sequence (P46098 whole entry): T2 sequence (whole entry)
# [14] = target: 5-hydroxytryptamine receptor 2C (Homo sapiens, UniProt P28335); experiment: Binding affinity to human 5HT2C receptor
# [15] = target: T3, 5-hydroxytryptamine receptor 3A; experiment: Displacement of [3H]granisetron from human 5HT3A receptor expressed in HEK293 cells by filter binding assay; type: cell-based
# [16] = target: 5-hydroxytryptamine receptor 6 (Homo sapiens, UniProt P50406); experiment: Binding affinity to human 5HT6 receptor
# Cytochrome P450 3A4 = Cytochrome P450 3A4 (Homo sapiens, UniProt P08684); experiment: Inhibition of human recombinant CYP3A4 using resorufin benzyl ether after 30 mins by fluorescence spectrophotometric analysis; type: ADME
# [17] = target: T2, 5-hydroxytryptamine receptor 3A (Homo sapiens); experiment: Agonist activity at human 5HT3A receptor expressed in xenopus oocytes by electrophysiological method in presence of ondansetron; conditions: Oocyte
# [18] = target: Sodium-dependent noradrenaline transporter (Homo sapiens) (UniProt P23975); experiment: Inhibition of human NET at 1 uM
# [19] = target: T2, 5-hydroxytryptamine receptor 3A (Homo sapiens); experiment: Agonist activity at human 5HT3A receptor expressed in xenopus oocytes by electrophysiological method relative to 5HT; conditions: Oocyte
# Histamine H2 receptor = Histamine H2 receptor (Homo sapiens, UniProt P25021); experiment: Binding affinity to human histamine H2 receptor
# Rattus norvegicus [20] = experiment: Hepatic clearance in rat at 1 mg/kg, iv; type: ADME, organism-based, Liver; set-up: dose 1 mg/kg, route intravenous; conditions: in vivo
# [21] = target: 5-hydroxytryptamine receptor 3A (Rattus norvegicus, UniProt P35563); experiment: Antagonist activity at rat 5HT3A receptor expressed in xenopus oocytes assessed as inhibition of 5HT-induced effect by electrophysiological method; type: functional, cell-based, Oocyte
# Liver microsomes [22] = experiment: Intrinsic clearance in human liver microsomes at 1 uM after 60 mins by LC-MS/MS analysis; type: ADME, Microsome; conditions: 1 h
# [23] = Inhibition of NET-mediated [3H]NE in rat synaptosomes by scintillation counting; type: subcellular, Brain
# Rattus norvegicus [24] = experiment: Antidepression activity in Harlan rat assessed as increase in extracellular 5HT level in medial prefrontal cortex region at 5 to 10 mg/kg, sc administered QD for 3 days by microdialysis method
# [25] = target: Sodium-dependent dopamine transporter (Rattus norvegicus, UniProt P23977); experiment: Inhibition of DAT-mediated [3H]DA in rat synaptosomes by scintillation counting; type: subcellular, Brain
# Sequence of Sodium-dependent dopamine transporter (P23977 whole entry): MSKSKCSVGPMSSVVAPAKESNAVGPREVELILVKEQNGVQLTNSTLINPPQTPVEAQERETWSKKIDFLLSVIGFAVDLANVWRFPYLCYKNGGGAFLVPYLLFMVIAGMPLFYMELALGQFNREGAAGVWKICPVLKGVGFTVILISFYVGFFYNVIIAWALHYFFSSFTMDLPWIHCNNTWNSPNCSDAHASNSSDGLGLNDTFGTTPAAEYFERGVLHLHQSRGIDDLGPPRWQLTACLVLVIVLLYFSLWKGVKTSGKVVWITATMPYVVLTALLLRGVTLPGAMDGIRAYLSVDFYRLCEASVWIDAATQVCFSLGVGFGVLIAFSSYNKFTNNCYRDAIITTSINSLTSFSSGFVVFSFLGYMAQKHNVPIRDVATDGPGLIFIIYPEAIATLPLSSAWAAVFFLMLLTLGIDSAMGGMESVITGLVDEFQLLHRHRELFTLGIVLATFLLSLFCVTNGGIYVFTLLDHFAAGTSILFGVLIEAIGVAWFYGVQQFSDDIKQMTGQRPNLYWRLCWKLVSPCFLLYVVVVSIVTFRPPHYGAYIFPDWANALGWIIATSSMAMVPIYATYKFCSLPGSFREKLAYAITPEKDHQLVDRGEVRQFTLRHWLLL
# T1 sequence (P34969 whole entry): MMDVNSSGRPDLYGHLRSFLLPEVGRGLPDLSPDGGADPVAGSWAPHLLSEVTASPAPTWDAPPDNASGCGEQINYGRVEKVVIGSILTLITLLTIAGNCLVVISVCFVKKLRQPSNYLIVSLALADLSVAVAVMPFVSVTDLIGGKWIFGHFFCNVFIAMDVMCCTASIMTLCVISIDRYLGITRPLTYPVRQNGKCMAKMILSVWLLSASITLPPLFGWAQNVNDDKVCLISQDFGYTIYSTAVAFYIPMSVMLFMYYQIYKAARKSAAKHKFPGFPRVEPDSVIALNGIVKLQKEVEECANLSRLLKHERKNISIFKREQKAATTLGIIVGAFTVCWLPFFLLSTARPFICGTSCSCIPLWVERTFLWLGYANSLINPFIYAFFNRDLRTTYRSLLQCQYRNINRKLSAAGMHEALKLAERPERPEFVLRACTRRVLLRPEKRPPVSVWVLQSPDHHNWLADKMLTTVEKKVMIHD
# Sequence of Sodium-dependent noradrenaline transporter (Homo sapiens) (P23975 whole entry): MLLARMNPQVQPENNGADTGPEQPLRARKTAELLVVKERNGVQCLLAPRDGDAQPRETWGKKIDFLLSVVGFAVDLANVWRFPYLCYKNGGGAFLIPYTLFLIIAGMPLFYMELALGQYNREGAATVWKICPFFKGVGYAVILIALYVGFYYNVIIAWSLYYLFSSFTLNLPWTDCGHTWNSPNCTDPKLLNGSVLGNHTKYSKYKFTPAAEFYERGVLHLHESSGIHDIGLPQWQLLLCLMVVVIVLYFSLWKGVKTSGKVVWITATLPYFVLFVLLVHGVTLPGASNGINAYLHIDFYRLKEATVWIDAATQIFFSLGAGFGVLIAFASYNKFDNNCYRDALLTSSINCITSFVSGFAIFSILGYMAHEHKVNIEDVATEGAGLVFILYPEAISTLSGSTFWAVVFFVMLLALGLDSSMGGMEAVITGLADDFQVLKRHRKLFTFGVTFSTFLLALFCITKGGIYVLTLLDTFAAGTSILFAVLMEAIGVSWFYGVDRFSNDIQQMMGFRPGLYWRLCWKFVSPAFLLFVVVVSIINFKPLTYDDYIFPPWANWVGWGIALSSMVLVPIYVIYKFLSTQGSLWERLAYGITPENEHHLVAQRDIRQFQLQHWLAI
# Sequence of Melanocortin receptor 4 (Homo sapiens) (P32245 whole entry): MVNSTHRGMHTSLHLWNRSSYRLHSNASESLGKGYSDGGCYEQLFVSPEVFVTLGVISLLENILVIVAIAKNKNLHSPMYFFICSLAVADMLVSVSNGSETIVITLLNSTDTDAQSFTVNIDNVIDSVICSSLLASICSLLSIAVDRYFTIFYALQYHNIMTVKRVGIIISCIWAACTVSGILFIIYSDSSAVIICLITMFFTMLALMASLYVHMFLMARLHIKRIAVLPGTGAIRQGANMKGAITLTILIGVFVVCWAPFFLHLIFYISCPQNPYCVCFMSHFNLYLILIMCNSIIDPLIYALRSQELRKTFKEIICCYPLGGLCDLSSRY
# Sequence of 5-hydroxytryptamine receptor 2C (P28335 whole entry): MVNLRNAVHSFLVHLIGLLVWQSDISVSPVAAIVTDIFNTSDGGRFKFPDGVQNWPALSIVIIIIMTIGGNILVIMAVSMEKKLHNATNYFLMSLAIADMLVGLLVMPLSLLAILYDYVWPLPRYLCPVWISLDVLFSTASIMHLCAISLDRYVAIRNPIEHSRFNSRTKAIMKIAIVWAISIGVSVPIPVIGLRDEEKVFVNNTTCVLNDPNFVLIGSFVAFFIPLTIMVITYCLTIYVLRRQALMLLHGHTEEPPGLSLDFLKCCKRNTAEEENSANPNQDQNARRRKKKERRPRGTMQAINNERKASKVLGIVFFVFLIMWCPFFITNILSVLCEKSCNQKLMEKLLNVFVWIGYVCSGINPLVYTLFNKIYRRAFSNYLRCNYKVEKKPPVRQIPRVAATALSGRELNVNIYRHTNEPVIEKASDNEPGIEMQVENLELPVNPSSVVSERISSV
# Sequence of 5-hydroxytryptamine receptor 1A (Rattus norvegicus) (P19327 whole entry, looked up): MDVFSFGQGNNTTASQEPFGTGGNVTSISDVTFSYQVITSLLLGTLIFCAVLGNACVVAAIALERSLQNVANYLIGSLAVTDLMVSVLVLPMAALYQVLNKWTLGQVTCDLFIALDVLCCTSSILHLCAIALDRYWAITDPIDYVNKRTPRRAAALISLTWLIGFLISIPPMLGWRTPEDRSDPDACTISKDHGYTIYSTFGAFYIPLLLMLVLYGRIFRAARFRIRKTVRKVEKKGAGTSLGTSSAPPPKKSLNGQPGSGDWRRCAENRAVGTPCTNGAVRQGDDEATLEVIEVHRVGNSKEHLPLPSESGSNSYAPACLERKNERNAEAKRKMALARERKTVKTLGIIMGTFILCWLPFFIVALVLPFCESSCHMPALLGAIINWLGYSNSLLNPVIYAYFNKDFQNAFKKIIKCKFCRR
# Sequence of Histamine H1 receptor (P35367 whole entry): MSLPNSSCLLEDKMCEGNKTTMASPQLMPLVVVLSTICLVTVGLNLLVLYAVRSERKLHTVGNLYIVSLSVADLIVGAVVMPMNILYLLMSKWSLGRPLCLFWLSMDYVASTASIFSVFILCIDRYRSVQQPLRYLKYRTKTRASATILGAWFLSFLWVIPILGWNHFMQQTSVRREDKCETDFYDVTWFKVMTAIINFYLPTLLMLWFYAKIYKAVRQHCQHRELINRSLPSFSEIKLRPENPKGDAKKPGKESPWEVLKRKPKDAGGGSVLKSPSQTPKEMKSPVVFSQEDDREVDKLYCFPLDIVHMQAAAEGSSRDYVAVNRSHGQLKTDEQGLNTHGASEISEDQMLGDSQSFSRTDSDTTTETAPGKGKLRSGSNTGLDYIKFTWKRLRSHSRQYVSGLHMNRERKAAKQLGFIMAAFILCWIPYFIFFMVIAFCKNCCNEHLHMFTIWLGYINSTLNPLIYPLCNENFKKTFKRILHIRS
# Sequence of 5-hydroxytryptamine receptor 1B (P28222 whole entry): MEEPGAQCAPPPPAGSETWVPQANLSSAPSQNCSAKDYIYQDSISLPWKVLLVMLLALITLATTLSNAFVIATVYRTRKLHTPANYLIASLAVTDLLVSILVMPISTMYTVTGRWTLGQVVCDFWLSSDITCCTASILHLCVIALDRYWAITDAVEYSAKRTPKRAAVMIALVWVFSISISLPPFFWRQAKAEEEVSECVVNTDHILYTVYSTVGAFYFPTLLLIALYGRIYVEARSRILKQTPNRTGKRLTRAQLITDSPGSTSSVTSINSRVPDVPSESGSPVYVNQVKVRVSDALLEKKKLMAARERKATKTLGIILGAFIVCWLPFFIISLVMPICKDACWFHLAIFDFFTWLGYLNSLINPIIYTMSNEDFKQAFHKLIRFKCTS
# Sequence of 5-hydroxytryptamine receptor 3A (Rattus norvegicus, UniProt P35563) (P35563 whole entry): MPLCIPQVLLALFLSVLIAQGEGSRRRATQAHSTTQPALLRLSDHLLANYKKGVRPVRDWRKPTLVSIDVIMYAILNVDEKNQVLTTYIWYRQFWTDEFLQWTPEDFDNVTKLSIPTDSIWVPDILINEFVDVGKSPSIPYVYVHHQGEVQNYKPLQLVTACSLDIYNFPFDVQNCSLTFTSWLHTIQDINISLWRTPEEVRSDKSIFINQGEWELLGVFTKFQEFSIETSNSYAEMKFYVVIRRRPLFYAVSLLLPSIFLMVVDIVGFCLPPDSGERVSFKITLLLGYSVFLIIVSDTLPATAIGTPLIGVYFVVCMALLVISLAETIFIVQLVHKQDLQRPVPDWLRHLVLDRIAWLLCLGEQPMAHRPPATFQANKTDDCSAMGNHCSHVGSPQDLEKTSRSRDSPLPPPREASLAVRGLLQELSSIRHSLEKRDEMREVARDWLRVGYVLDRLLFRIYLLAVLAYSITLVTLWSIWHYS
# Sequence of 5-hydroxytryptamine receptor 3A (Rattus norvegicus) (P35563 whole entry): as above
# Sequence of 5-hydroxytryptamine receptor 6 (P50406 whole entry): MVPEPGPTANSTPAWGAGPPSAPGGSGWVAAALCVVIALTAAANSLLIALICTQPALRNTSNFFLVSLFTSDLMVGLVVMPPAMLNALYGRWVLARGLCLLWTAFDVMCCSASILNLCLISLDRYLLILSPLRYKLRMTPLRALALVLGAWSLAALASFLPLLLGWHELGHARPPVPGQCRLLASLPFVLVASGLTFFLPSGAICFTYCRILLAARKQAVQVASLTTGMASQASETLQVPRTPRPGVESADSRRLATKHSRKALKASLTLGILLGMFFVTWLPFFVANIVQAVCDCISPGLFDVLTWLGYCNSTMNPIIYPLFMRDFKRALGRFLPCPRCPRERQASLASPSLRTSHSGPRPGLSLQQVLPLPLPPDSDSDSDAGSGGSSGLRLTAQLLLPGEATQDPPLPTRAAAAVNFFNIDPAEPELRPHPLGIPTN
structure (smiles),measurement,setting,value
Cc1ccc(Sc2ccccc2N2CCNCC2)c(C)c1.Cl,Ki,[1],19 nM
same,CLH,Liver microsomes [2],55 mL/min
same,Ki,[3],33 nM
same,Activity,Rattus norvegicus [4],Active
same,Ki,[5],450 nM
same,inhibition,[6],100%
same,Activity,Rattus norvegicus [7],Active
same,Activity,Rattus norvegicus [8],Dose-dependent effect
same,inhibition,[9],51%
same,Ki,Histamine H1 receptor,180 nM
same,Activity,[10],inactive
same,Ki,[11],230 nM
same,Occ,Rattus norvegicus [12],57%
same,IC50,[13],12 nM
same,Ki,[14],180 nM
same,Ki,[15],23 nM
same,Ki,[16],330 nM
same,IC50,Cytochrome P450 3A4,10000 nM
same,Activity,[17],inactive
same,inhibition,[18],88%
same,Efficacy,[19],64%
same,Ki,Histamine H2 receptor,180 nM
same,CLH,Rattus norvegicus [20],118 mL/min/kg
same,IC50,[21],0.18 nM
same,CLH,Liver microsomes [22],0.5 L/min
same,IC50,[23],140 nM
same,Activity,Rattus norvegicus [24],Active
same,IC50,[25],890 nM
